Reference: patent US8974836B2, “Angiogenesis regulating composition and method for regulating angiogenesis” (Air Water, Inc., priority 2009, dated 2015)
Like-named read-outs stand apart in the source and are kept apart here.

Key:
[1] = system: model mice of oxygen-induced retinal angiogenesis; test: Exemplary experiment 4: nitrite versus general-purpose nitrogen monoxide donor drugs, retinal avascular area; type: in vivo, C57BL/6J mouse
Method: Preparation of the model mice of oxygen-induced retinal angiogenesis, fluorescent imaging of retinal vessels and a retinal flat-mount were operated according to exemplary experiment 1.
(§1) Areal ratio of retinal avascular area was calculated pursuant to exemplary experiment 1.

[2] = system: model mice of oxygen-induced retinal angiogenesis; conditions: for retinal avascular area reduced as compared to control group: 15 or 75 μmol/kg once per day P7-P16, versus physiological saline
Text: C57BL/6J mouse (SLC) was used as an experimental animal. […] Neonatal mice were bred from the 7th day (P7) to the 12th day (P12) after birth together with a parent mouse in a cage of high levels of oxygen (75±1% of O2) controlled by oxygen control equipment (PRO-OX110, produced by Reming Bioinstruments Co) to provide high levels of oxygen (75±1% of O2). Retinal angiogenesis was induced by breeding under normoxic condition (21% of O2) from the 12th day to the 17th day after birth. […] In addition, physiological saline as controls was similarly injected hypodermically instead of test compound.
Fifty micro grams per animal of fluorescein-conjugated dextran (FITC-dextran; M.W. 2×10^6, produced by SIGMA) were systemically perfused from the left ventricle under deep anesthesia with pentobarbital on the 17th day after birth (P17). After the perfusion, eyes of mouse were removed and fixed in a 4% paraformaldehyde phosphate buffer for 4-12 hours. After the fixation, the cornea and the lens were excised from eye, and the residual hyaloid artery was removed by micro tweezers. The retina was separated under a microscope, and subsequently set flat and embedded in [sequence] (produced by Vector Laboratories Inc.) for preparation of a retinal flat-mount.
Flat mounted retinas were imaged with a high sensitivity CCD camera under a fluorescent inverted microscope (Olympus IX71). A value of total retinal area and a value of retinal avascular area in obtained image were converted to numeric data by Photoshop CS4 extended (Adobe), and a value of areal ratio of retinal avascular area in comparison with the value of total retinal area was calculated by the following equation: value of areal ratio of retinal avascular area=value of retinal avascular area (μm^2)/value of total retinal area (μm^2)×100

[3] = Exemplary experiment 6: plasma concentration of nitrate ions after administration; conditions: P12, average
Method: (§2) Sodium nitrate or sodium nitrite as a test compound was dissolved in physiological saline for injection to prepare a test compound injection of […].
C57BL/6J mouse (SLC) was used as an experimental animal. The model mice of oxygen-induced retinal angiogenesis were prepared according to exemplary experiment 1. […] Thereafter, isoflurane was used to anesthetize the mice, and 150 μl of blood was collected from the abdominal aorta over time. Plasma concentration of nitrate ions was measured by ion exchange chromatography using a normal phase column under the following conditions:
Conditions for Ion Exchange Chromatography • Separation column: Asahipak NH2P-50 4E (4.6 mm×250 mm) • Guard column: Inertsil NH2 (5 μm) (4 mm×10 mm) • Mobile phase: 10 mM of sodium dihydrogenphosphate, 150 mM of sodium perchlorate, 5.0 • Flow rate: 0.7 ml/min • Detection wavelength: 210 nm

[4] = in vivo; cited from earlier work
[5] = system: model mice of oxygen-induced retinal angiogenesis; test: Exemplary experiment 2: suppression of pathologic neovascularization (pathological vessels extending into the vitreum); type: in vivo, C57BL/6J mouse; conditions: for number of pathological vessels breaking the inner limiting membrane and extending into the vitreum: 15 or 75 μmol/kg once per day P7-P16, P17, FIG. 2, versus physiological saline
Method: The effect of sodium nitrate and sodium nitrite for suppression of pathologic neovascularization by oxygen-induced retinal vascularized model was evaluated.
as §2
C57BL/6J mouse (SLC) was used as an experimental animal. The model mice of oxygen-induced retinal angiogenesis were prepared according to exemplary experiment 1. Sodium nitrate or sodium nitrite was injected to a cervical region hypodermically once per day in amount of 15 or 75 μmol/kg for ten days from the 7th day (P7) to the 16th day (P16) after birth. In addition, physiological saline as controls was similarly injected hypodermically instead of test compound.
On the 17th day after birth (P17), the mice were euthanised by overdose of pentobarbital, and eyes were removed together with optic nerve. The eyes were washed in physiological saline, excessive tissues were excised, and the eyes were thus fixed in a 4% paraformaldehyde phosphate buffer for 12 hours. After the fixation, the eyes were dehydrated by immersing in a graded ethanol series of 70-100% sequentially and were embedded in paraffin.

[6] = system: model mice of oxygen-induced retinal angiogenesis; test: Exemplary experiment 3: regulation of retinal angiogenesis, administration from start of angiogenesis (P12); type: in vivo, C57BL/6J mouse; conditions: for value of areal ratio of retinal avascular area / value of retinal avascular area: 15 μmol/kg hypodermically once per day P12-P16, average; for reduction of retinal avascular area in comparison with a control group: 15 μmol/kg, administered from the start of retinal angiogenesis (P12)
Method: For the model mice of oxygen-induced retinal angiogenesis, retinal angiogenesis is induced by providing 75% oxygen followed by breeding in room air during P12-P17.
Sodium nitrate or sodium nitrite as a test compound was dissolved in physiological saline for injection to prepare a test compound injection of […].
Preparation of the model mice of oxygen-induced retinal angiogenesis, fluorescent imaging of retinal vessels and a retinal flat-mount were operated according to exemplary experiment 1. However sodium nitrate or sodium nitrite was injected to a cervical region hypodermically once per day in amount of 15 μmol/kg for […] from the 12th day (P12) to the 16th day (P16) after birth. In addition, physiological saline as controls was similarly injected hypodermically instead of test compound for the same period of time.
as §1

[7] = system: model mice of oxygen-induced retinal angiogenesis; test: Exemplary experiment 5: nitrite versus anti-VEGF antibody, retinal avascular area; type: in vivo, C57BL/6J mouse; conditions: 15 μmol/kg hypodermically once per day P7-P16, average
Method: Using the model mice of oxygen-induced retinal angiogenesis, a comparison was made about retinopathy treatment effect between nitrite and an anti-VEGF antibody used for treatment of progressive colorectal cancer, age-related macular degeneration and so on.
Sodium nitrite as a test compound was dissolved in physiological saline for injection to prepare a test compound injection of 3 μmol/ml. For a comparative example, a murine monoclonal anti-VEGF antibody (produced by SANTACRUZ BIOTECHNOLOGY, INC.) was condensed to prepare 500 μg IgG/ml of an injection for the comparative example.
Preparation of the model mice of oxygen-induced retinal angiogenesis, fluorescent imaging of retinal vessels and a retinal flat-mount were operated according to exemplary experiment 1. Sodium nitrite was injected to a cervical region hypodermically once per day in amount of 15 μmol/kg for ten days from the 7th day (P7) to the 16th day (P16) after birth. The anti-VEGF antibody was injected through the corneal limbus to the vitreous body with a microsyringe equipped with a 33G hypodermic needle, by cutting mice eyelids open when oxygenation ended (on the 12th day alter birth).
as §1

methemoglobinemia = conditions: reported for Rodentia; cited from earlier work
[8] = 20 μmol/kg hypodermically once per day P7-P16, average
[9] = 75 μmol/kg hypodermically once per day P7-P16, evaluated P17, average
[10] = 15 μmol/kg hypodermically once per day P7-P16, evaluated P17, average
[11] = 15 μmol/kg hypodermically once per day P7-P16, average

O=[N+]([O-])OCC(CO[N+](=O)[O-])O[N+](=O)[O-] [NTG, nitroglycerin]
value of areal ratio of retinal avascular area [1, 8]: 21.36% | value of retinal avascular area [1, 8]: 1456421.33 μm^2 | retinal avascular area increased in comparison with a group administered with nitrite ([1]; SNP 2 μmol/kg, NTG 20 μmol/kg versus sodium nitrite 15 μmol/kg, P7-P16): approximately 3.3 times | reduction of avascular area (typical symptom of retinopathy), in words ([1]; SNP 2 μmol/kg, NTG 20 μmol/kg, once per day P7-P16): Neither SNP nor NTG was observed to reduce

O=[N+]([O-])[O-].[Na+] [sodium nitrate]
value of areal ratio of retinal avascular area [2, 9]: 12.7% | value of retinal avascular area [2, 9]: 842271.02 μm^2 | retinal avascular area reduced as compared to control group [2]: approximately 20% | maximum plasma concentration of nitrate ions after single-dose administration ([3]; 15 μmol/kg subcutaneously in cervical region): 135.38 µmol/L | maximum plasma concentration of nitrate ions after single-dose administration ([3]; 75 μmol/kg subcutaneously in cervical region): 194.9 µmol/L | nitrate having entered systemic circulation secreted in saliva [4]: approximately 25% | portion of nitrate in saliva reduced to nitrite by dental bacteria [4]: approximately 30% | number of pathological vessels breaking the inner limiting membrane and extending into the vitreum [5]: decreased | value of areal ratio of retinal avascular area [6]: 8.76% | value of retinal avascular area [6]: 506451.72 μm^2 | reduction of retinal avascular area in comparison with a control group [6]: approximately 40%

O=NO [sodium nitrite]
value of areal ratio of retinal avascular area [2, 10]: 6.44% | value of retinal avascular area [2, 10]: 417863.94 μm^2 | value of areal ratio of retinal avascular area [2, 9]: 10.01% | value of retinal avascular area [2, 9]: 571705.28 μm^2 | retinal avascular area reduced as compared to control group [2]: 40-60% | value of areal ratio of retinal avascular area [7]: 9.3% | value of retinal avascular area [7]: 621218.70 μm^2 | value of areal ratio of retinal avascular area ([7]; listed as nitrite): 9.3% | pathological vessels reduced as compared with a control ([5]; 75 μmol/kg once per day P7-P16, P17): approximately 30% | number of pathological vessels breaking the inner limiting membrane and extending into the vitreum [5]: decreased | value of areal ratio of retinal avascular area [6]: 9.3% | value of retinal avascular area [6]: 621218.70 μm^2 | reduction of retinal avascular area in comparison with a control group [6]: approximately 40% | value of areal ratio of retinal avascular area [1, 11]: 6.44% | value of retinal avascular area [1, 11]: 417863.94 μm^2 | maximal no-effect dose for methemoglobinemia (methemoglobinemia): 84 mg/kg/day
